Measured values reported in ChEMBL document CHEMBL2176875, “Ago-allosteric modulators of human glucagon-like peptide 2 receptor” (Bioorg Med Chem Lett, 2012).
Each block holds one compound with its values, some of them ahead of it. Activity calls are given as the source filed them. The rule behind the calls is not given here.

Experiments:
[1] = biological target: T1, Glucagon-like peptide 2 receptor (Homo sapiens) (UniProt O95838); assay: Positive ago-allosteric modulation of GLP2R overexpressed in human SE302 cells assessed as placental alkaline phosphatase activation at 25 uM measured on day 3 by Alamar Blue assay relative to 100 pM GLP2; type: cell-based
T1 sequence (whole entry): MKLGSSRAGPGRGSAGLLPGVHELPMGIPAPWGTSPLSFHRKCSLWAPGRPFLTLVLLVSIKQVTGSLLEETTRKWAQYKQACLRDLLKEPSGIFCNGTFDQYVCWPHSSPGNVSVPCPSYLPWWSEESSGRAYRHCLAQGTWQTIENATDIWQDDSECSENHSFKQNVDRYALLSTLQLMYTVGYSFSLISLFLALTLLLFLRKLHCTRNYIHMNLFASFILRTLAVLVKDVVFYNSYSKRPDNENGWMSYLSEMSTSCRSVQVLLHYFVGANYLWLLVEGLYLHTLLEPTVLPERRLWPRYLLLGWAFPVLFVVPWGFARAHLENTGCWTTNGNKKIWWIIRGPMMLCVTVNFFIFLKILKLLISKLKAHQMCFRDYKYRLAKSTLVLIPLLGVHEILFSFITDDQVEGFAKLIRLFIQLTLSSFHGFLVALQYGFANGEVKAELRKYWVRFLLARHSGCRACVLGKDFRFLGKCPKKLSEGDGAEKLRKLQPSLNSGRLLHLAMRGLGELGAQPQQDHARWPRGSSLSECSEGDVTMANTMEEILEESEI

[2] = biological target: T1, Glucagon-like peptide 2 receptor (Homo sapiens); assay: Positive ago-allosteric modulation of GLP2R overexpressed in human SE302 cells assessed as placental alkaline phosphatase activation at 25 uM measured on day 3 by Alamar Blue assay relative to 10 pM GLP2; type: cell-based
[3] = biological target: T1, Glucagon-like peptide 2 receptor (Homo sapiens); assay: Positive ago-allosteric modulation of GLP2R overexpressed in human SE302 cells assessed as placental alkaline phosphatase activation at 50 uM measured on day 3 by Alamar Blue assay relative to 10 pM GLP2; type: cell-based
[4] = biological target: T1, Glucagon-like peptide 2 receptor (Homo sapiens); assay: Positive ago-allosteric modulation of GLP2R overexpressed in human SE302 cells assessed as placental alkaline phosphatase activation at 50 uM measured on day 3 by Alamar Blue assay relative to 100 pM GLP2; type: cell-based
[5] = biological target: T1, Glucagon-like peptide 2 receptor (Homo sapiens); assay: Positive ago-allosteric modulation of GLP2R overexpressed in human SE302 cells assessed as placental alkaline phosphatase activation at 6.3 uM measured on day 3 by Alamar Blue assay relative to 100 pM GLP2; type: cell-based
[6] = biological target: T1, Glucagon-like peptide 2 receptor (Homo sapiens); assay: Positive ago-allosteric modulation of GLP2R overexpressed in human SE302 cells assessed as placental alkaline phosphatase activation at 6.3 uM measured on day 3 by Alamar Blue assay relative to 10 pM GLP2; type: cell-based
[7] = biological target: T1, Glucagon-like peptide 2 receptor (Homo sapiens); assay: Positive ago-allosteric modulation of GLP2R overexpressed in human SE302 cells assessed as increase in intracellular cAMP level at 1 to 10 uM after 30 mins in presence of GLP2 (11 to 33); type: functional, cell-based
[8] = biological target: T1, Glucagon-like peptide 2 receptor (Homo sapiens); assay: Positive ago-allosteric modulation of GLP2R overexpressed in human SE302 cells assessed as increase in intracellular cAMP level at 1 to 10 uM after 30 mins in presence of GLP2 (3 to 33); type: functional, cell-based
[9] = biological target: T1, Glucagon-like peptide 2 receptor (Homo sapiens); assay: Positive ago-allosteric modulation of GLP2R overexpressed in human SE302 cells assessed as upward shift in GLP2-induced placental alkaline phosphatase activation measured on day 3 by Alamar Blue assay; type: cell-based
[10] = biological target: T1, Glucagon-like peptide 2 receptor (Homo sapiens); assay: Positive ago-allosteric modulation of GLP2R overexpressed in human SE302 cells assessed as increase in intracellular cAMP level at 10 uM after 30 mins in presence of GLP2; type: functional, cell-based
[11] = biological target: T1, Glucagon-like peptide 2 receptor (Homo sapiens); assay: Positive ago-allosteric modulation of GLP2R overexpressed in human SE302 cells assessed as leftward shift in GLP2-induced placental alkaline phosphatase activation measured on day 3 by Alamar Blue assay; type: cell-based
[12] = biological target: T1, Glucagon-like peptide 2 receptor (Homo sapiens); assay: Positive ago-allosteric modulation of GLP2R overexpressed in human SE302 cells assessed as decrease in GLP2 (11 to 33) EC50 at 10 uM measured on day 3 by Alamar Blue assay relative to control; type: cell-based
[13] = biological target: T1, Glucagon-like peptide 2 receptor (Homo sapiens); assay: Positive ago-allosteric modulation of GLP2R overexpressed in human SE302 cells assessed as decrease in GLP2 (3 to 33) EC50 at 10 uM measured on day 3 by Alamar Blue assay relative to control; type: cell-based
[14] = biological target: T1, Glucagon-like peptide 2 receptor (Homo sapiens); assay: Positive ago-allosteric modulation of GLP2R overexpressed in human SE302 cells assessed as decrease in GLP2 (11 to 33) EC50 at 1 uM measured on day 3 by Alamar Blue assay relative to control; type: cell-based
[15] = biological target: T1, Glucagon-like peptide 2 receptor (Homo sapiens); assay: Positive ago-allosteric modulation of GLP2R overexpressed in human SE302 cells assessed as decrease in GLP2 (3 to 33) EC50 at 1 uM measured on day 3 by Alamar Blue assay relative to control; type: cell-based
[16] = biological target: T1, Glucagon-like peptide 2 receptor (Homo sapiens); assay: Positive ago-allosteric modulation of GLP2R overexpressed in human SE302 cells assessed as change in GLP2 EC50 measured on day 3 by Alamar Blue assay relative to control; type: cell-based
[17] = biological target: T1, Glucagon-like peptide 2 receptor (Homo sapiens); assay: Positive ago-allosteric modulation of GLP2R overexpressed in human SE302 cells assessed as increase in GLP2 (11 to 33)-induced placental alkaline phosphatase activation at 10 uM measured on day 3 by Alamar Blue assay relative to control; type: cell-based
[18] = biological target: T1, Glucagon-like peptide 2 receptor (Homo sapiens); assay: Positive ago-allosteric modulation of GLP2R overexpressed in human SE302 cells assessed as increase in GLP2 (11 to 33)-induced placental alkaline phosphatase activation at 1 uM measured on day 3 by Alamar Blue assay relative to control; type: cell-based
[19] = biological target: T1, Glucagon-like peptide 2 receptor (Homo sapiens); assay: Positive ago-allosteric modulation of GLP2R overexpressed in human SE302 cells assessed as increase in GLP2 (3 to 33)-induced placental alkaline phosphatase activation at 10 uM measured on day 3 by Alamar Blue assay relative to control; type: cell-based
[20] = biological target: T1, Glucagon-like peptide 2 receptor (Homo sapiens); assay: Positive ago-allosteric modulation of GLP2R overexpressed in human SE302 cells assessed as increase in GLP2 (3 to 33)-induced placental alkaline phosphatase activation at 1 uM measured on day 3 by Alamar Blue assay relative to control; type: cell-based
[21] = biological target: T1, Glucagon-like peptide 2 receptor (Homo sapiens); assay: Positive ago-allosteric modulation of GLP2R overexpressed in human SE302 cells assessed as increase in GLP2 (11 to 33)-induced placental alkaline phosphatase activation at 10 uM measured on day 3 by Alamar Blue assay relative to GLP2; type: cell-based
[22] = biological target: T1, Glucagon-like peptide 2 receptor (Homo sapiens); assay: Positive ago-allosteric modulation of GLP2R overexpressed in human SE302 cells assessed as GLP2 (3 to 33)-induced placental alkaline phosphatase activation at 10 uM measured on day 3 by Alamar Blue assay relative to GLP2; type: cell-based
[23] = biological target: T1, Glucagon-like peptide 2 receptor (Homo sapiens); assay: Positive ago-allosteric modulation of GLP2R overexpressed in human SE302 cells assessed as increase in GLP2-induced placental alkaline phosphatase activation at 10 uM measured on day 3 by Alamar Blue assay relative to control; type: cell-based
[24] = biological target: T1, Glucagon-like peptide 2 receptor (Homo sapiens); assay: Positive ago-allosteric modulation of GLP2R overexpressed in human SE302 cells assessed as increase in intracellular cAMP level at 10 to 100 uM after 30 mins; type: functional, cell-based
[25] = biological target: Glucagon-like peptide 1 receptor (Homo sapiens) (UniProt P43220); assay: Positive ago-allosteric modulation of GLP1R overexpressed in human SE302 cells assessed as increase in intracellular cAMP level at 10 to 100 uM after 30 mins; type: functional, cell-based
[26] = biological target: T1, Glucagon-like peptide 2 receptor (Homo sapiens); assay: Positive ago-allosteric modulation of GLP2R overexpressed in human SE302 cells assessed as placental alkaline phosphatase activation measured on day 3 by Alamar Blue assay; type: cell-based
[27] = biological target: T1, Glucagon-like peptide 2 receptor (Homo sapiens); assay: Positive ago-allosteric modulation of GLP2R overexpressed in human SE302 cells assessed as placental alkaline phosphatase activation measured on day 3 by Alamar Blue assay relative to GLP2; type: cell-based
[28] = biological target: T1, Glucagon-like peptide 2 receptor (Homo sapiens); assay: Displacement of [125I]-Bolton Hunter labeled GLP2 from GLP-2R overexpressed in human SE302 cell membranes up to 100 uM after 2 hrs by gamma counter

Chain of Glucagon-like peptide 1 receptor (Homo sapiens) (P43220 whole entry): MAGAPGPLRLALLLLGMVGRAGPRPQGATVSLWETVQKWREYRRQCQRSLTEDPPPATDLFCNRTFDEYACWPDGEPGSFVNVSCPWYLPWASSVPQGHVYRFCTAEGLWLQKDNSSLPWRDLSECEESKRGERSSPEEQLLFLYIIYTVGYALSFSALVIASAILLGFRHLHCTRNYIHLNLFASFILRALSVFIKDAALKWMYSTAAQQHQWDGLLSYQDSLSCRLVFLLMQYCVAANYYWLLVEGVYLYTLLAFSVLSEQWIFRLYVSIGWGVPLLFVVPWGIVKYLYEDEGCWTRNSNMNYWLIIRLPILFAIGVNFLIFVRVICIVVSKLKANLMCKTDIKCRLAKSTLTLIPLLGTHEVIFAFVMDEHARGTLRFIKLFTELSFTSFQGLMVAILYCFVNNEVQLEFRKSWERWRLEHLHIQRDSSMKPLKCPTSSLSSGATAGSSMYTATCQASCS

Compound: O/N=C(\CSc1ccc(Cl)cc1)c1cc(Cl)sc1Cl
%max [1]: 17%
%max [2]: 293%

Compound: Cc1ccc(SC/C(=N\O)c2cc(Cl)sc2Cl)cc1
%max [3]: 65%
%max [4]: 3%

Compound: O/N=C(\CSc1ccccc1)c1cccc(Cl)c1
%max [2]: 46%

Compound: O/N=C(\CSc1ccccc1)c1ccccc1
%max [3]: 4%

Compound: O/N=C(\CSc1ccccc1C(F)(F)F)c1cc(C(F)(F)F)nn1C1CCCC1
%max [5]: 83%
%max [6]: 610%

Compound: COC(=O)c1ccccc1SC/C(=N\O)c1cc(Cl)sc1Cl
%max [1]: 39%
%max [2]: 284%

Compound: O/N=C(\CSc1ccncc1)c1cc(Cl)sc1Cl
Activity [28]: inactive
%max [4]: 55%

Compound: COc1ccc(SC/C(=N\O)c2cc(Cl)sc2Cl)cc1
%max [3]: 217%

More lines, now with the values ahead:

%max [5]: 97%
%max [6]: 714%
Compound: COc1c(Br)cc(/C(CSc2ccccc2C(F)(F)F)=N/O)cc1C(C)(C)C

Activity [7]: Active
Activity [8]: Active
Activity [9]: Dose-dependent effect
Activity [10]: Active
Activity [11]: Dose-dependent effect
fold change (FC) [12]: 17
fold change (FC) [13]: 3.3
fold change (FC) [14]: 3.4
fold change (FC) [15]: 1.2
Activity [16]: inactive
%max [17]: 930%
%max [18]: 490%
%max [19]: 150%
%max [20]: 110%
Activity [21]: Active
Activity [22]: Active
Activity [23]: 10%
Activity [24]: Active
Activity [25]: inactive
Activity [26]: inactive
%max [1]: 55%
%max [2]: 701%
Compound: O/N=C(\CSc1ccccc1)c1cc(Cl)sc1Cl

%max [27]: 59%
Compound: H-DGSFSDEMNTILDNLAARDFINWLIQTKITD-OH

%max [1]: 18%
%max [2]: 244%
Compound: CC(C)(C)c1cccc(/C(CSc2ccccc2)=N/O)c1

Activity [26]: inactive
%max [2]: 144%
Compound: COc1cccc(SC/C(=N\O)c2cc(Cl)sc2Cl)c1
